Marks after values point to notes of the source that are not given here.
Key:
Assay type in all cases: in vivo, male Wistar rats
[1] = Open field activity monitor, test for sedation in normal rats; details: for largest non-sedating dose: intraperitoneally, rats; for open field activity monitor, mean: male, Wistar, rat, in vivo, ip, 20 min
Protocol: (§1) Experiments were performed on male Wistar rats (wt 150-220g). Two series of experiments were performed in an observer blinded fashion with saline (negative) controls and GABAPentin (positive) controls. The investigations were in two stages: • 1. a range of doses of aprepitant (an example of a NK antagonist) given alone and in combination with flupirtine (an example of an inhibitor of neuronal excitation) were tested for sedating effects using the open field activity monitor.
Individual rats (several rats per treatment group) were placed in an open field activity monitor in which the movement of the rat could be monitored remotely by the frequency and number of interruption of infrared beams directed across the box in a grid. The activity in the monitor was measured for periods of 20 minutes in each rat. This was performed in groups of rats that received (1) control injection of saline, (2) GABAPentin 50 mg/kg as the maximum dose of that drug found previously not to be sedating (drug positive control) administered intraperitoneally, or (3) after pharmacological interventions that involve the administration of aprepitant and flupirtine given at a range of doses alone and in combination. If a rat was sedated by a drug or drug combination, the movements recorded were less. Since rats become habituated to the open field monitor, only one experiment was performed on each rat with this test.
These were the upper dose limits for subsequent experiments investigating the analgesic effects of these drugs administered together in combinations.

[2] = tested on: streptozotocin-induced diabetic neuropathy; assay: Reversal of heat hyperalgesia (paw flick, Hargreaves) in streptozotocin-induced diabetic neuropathy
Protocol: Male Wistar rats (wt 50-70 g) were given streptozotocin 150 mg/kg intraperitoneally. […] The largest non-sedating doses of GABAPentin (50 mg/kg intraperitoneally) and aprepitant (6.25 mg/kg intraperitoneally) were assessed for possible analgesic effect by measurement of the percentage reversal of the hyperalgesia caused by the diabetes assessed by withdrawal from noxious heat applied to the hind paw.
Experiments were performed in an observer blinded fashion with parallel saline treated controls:

[3] = tested on: streptozotocin-induced diabetic neuropathy; assay: Reversal of allodynia (von Frey hair) in streptozotocin-induced diabetic neuropathy; details: each drug alone at non sedating doses, intraperitoneal
Protocol: as §1
Rats were injected intraperitoneally with streptozotocin (150 mg per kg total dose—Sapphire Bioscience) dissolved in sodium chloride 0.9%. The induction of diabetes was confirmed one week after injection of streptozotocin and weekly thereafter by measurement of tail vein blood glucose levels with Ames Glucofilm test strips and Ames Glucometer blood glucose meter. Only animals with blood glucose levels greater than or equal to 15 mM and maintained continuously for 5 weeks were deemed to be diabetic. […] At the end of five weeks these rats were assessed with the methods of measuring hyperalgesia (paw flick—Hargreaves method) and allodynia (withdrawal from von Frey Hair stimulation at normally non noxious intensity) to elucidate the antinociceptive effects of flupirtine and aprepitant given intraperitoneally alone and in combination (with saline and GABApentin for comparison).

Row | Structure (SMILES) | largest non-sedating dose [1] | reversal of hyperalgesia (statistics) ([2]; GABAPentin 50 mg/kg alone vs saline, P<0.01) | percentage reversal of the hyperalgesia, mean ([2]; GABAPentin 50 mg/kg intraperitoneally alone, noxious heat to hind paw, n=17) | open field activity monitor, mean ([1]; 6.25 mg/kg) | open field activity monitor, mean ([1]; 12.5 mg/kg) | open field activity monitor, mean ([1]; 25 mg/kg) | open field activity monitor, mean ([1]; 50 mg/kg) | open field activity monitor, mean ([1]; 100 mg/kg) | antinociception with respect to allodynia [3]
1 | NCC1(CC(=O)O)CCCCC1 [GABAPentin] | 50 mg/kg | statistically significant reversal of hyperalgesia | 27.67 | – | – | – | – | – | –
2 | C[C@@H](O[C@H]1OCCN(Cc2n[nH]c(=O)[nH]2)[C@H]1c1ccc(F)cc1)c1cc(C(F)(F)F)cc(C(F)(F)F)c1 [aprepitant] | 6.25 mg/kg | – | – | 869.0 | 915.0* | 964.6* | 976.6* | 1058.2 | Neither drug at non sedating doses causes significant antinociception

— patent US20100316678A1, “COMBINATION METHODS AND COMPOSITIONS FOR TREATMENT OF NEUROPATHIC PAIN” (CNSBio Pty Ltd., priority 2007, published 2010)
